# Results from ChEMBL document CHEMBL4270569, “Crystal structure of the Eg5 - K858 complex and implications for structure-based design of thiadiazole-containing inhibitors” (Eur J Med Chem, 2018).
# Biological target: T1, Kinesin-like protein KIF11 (Homo sapiens, UniProt P52732)
# T1 sequence (P52732 whole entry): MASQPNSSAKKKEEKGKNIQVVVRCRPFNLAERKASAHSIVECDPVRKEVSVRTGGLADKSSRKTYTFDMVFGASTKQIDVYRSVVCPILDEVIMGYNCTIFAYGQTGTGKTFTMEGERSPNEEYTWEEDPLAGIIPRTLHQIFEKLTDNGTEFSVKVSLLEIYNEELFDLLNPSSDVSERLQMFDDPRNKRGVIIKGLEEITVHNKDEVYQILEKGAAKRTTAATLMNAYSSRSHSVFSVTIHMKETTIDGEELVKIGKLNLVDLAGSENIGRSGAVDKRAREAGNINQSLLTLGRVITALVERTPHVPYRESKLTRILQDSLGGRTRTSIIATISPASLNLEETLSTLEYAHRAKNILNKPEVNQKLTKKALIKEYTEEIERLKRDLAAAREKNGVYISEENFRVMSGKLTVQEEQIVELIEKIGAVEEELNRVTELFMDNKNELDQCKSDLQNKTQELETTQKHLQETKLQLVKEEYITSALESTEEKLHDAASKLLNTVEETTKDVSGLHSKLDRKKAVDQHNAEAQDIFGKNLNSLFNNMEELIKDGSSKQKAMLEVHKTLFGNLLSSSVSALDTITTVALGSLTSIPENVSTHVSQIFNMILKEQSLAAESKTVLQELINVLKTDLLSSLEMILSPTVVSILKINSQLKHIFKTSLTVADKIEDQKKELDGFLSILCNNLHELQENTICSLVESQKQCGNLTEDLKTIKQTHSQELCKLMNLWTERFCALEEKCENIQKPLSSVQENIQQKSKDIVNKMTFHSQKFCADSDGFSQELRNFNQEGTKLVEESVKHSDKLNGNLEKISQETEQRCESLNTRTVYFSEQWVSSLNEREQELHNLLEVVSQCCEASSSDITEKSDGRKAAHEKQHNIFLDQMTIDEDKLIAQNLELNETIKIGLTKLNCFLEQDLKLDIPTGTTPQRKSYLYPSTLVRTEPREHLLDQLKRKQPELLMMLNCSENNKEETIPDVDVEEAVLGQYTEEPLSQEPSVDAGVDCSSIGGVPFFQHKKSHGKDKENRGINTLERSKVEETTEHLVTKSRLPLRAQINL
# Assay: Inhibition of basal ATPase activity of N-terminal His6-tagged human Eg5 motor domain (1 to 368 residues) expressed in Escherichia coli BL21 (DE3) by pyruvate kinase-lactate dehydrogenase coupled assay
row,Compound,IC50
1,CC(=O)NC1=NN(C(C)=O)C(C)(c2cccs2)S1 (centres undefined),1700 nM
2,CC(=O)NC1=NN(C(C)=O)C(C)(c2cccnc2)S1 (centres undefined),8500 nM
3,CC(=O)NC1=NN(C(C)=O)C(C)(c2ccccc2)S1 (centres undefined),740 nM
4,CC(=O)NC1=NN(C(C)=O)C(C)(c2ccco2)S1 (centres undefined),4300 nM
5,CC(=O)NC1=NN(C(C)=O)C(C)(c2ccc3ccccc3c2)S1 (centres undefined),15600 nM
6,CC(=O)NC1=NN(C(C)=O)C(c2ccccc2)S1 (centres undefined),20000 nM
7,CC(=O)NC1=NN(C(C)=O)C(C)(c2cnccn2)S1 (centres undefined),46900 nM
8,CC(=O)NC1=NN(C(C)=O)C(C)(c2ccsc2)S1 (centres undefined),2200 nM
9,CC(=O)NC1=NN(C(C)=O)C(C)(c2ccncc2)S1 (centres undefined),59900 nM

# Continued, values first:
row,IC50,Compound
1,53900 nM,CC(=O)NC1=NN(C(C)=O)C(c2cccc3ccccc23)S1 (centres undefined)
2,41100 nM,CC(=O)NC1=NN(C(C)=O)C(c2cc(F)ccc2F)S1 (centres undefined)
3,37200 nM,CC(=O)NC1=NN(C(C)=O)C(C)(c2ccccn2)S1 (centres undefined)
4,7500 nM,CC(=O)NC1=NN(C(C)=O)C(C)(C2CCCCC2)S1 (centres undefined)
5,5100 nM,CC(=O)NC1=NN(C(C)=O)C(C)(c2ccc(OC(C)=O)cc2)S1 (centres undefined)
6,1900 nM,CC(=O)NC1=NN(C(C)=O)C(C)(c2cccc3ccccc23)S1 (centres undefined)
7,1460 nM,CCC1(c2ccccc2)SC(NC(C)=O)=NN1C(C)=O (centres undefined)
8,950 nM,CC(=O)NC1=NN(C(C)=O)C(C)(c2ccc(Cl)s2)S1 (centres undefined)
9,840 nM,CC(=O)NC1=NN(C(C)=O)C(C)(c2cc(F)ccc2F)S1 (centres undefined)
10,580 nM,CC(=O)NC1=NN(C(C)=O)[C@](C)(c2ccccc2)S1

# Biological target: T1, Kinesin-like protein KIF11
# Assay: Inhibition of N-terminal His6-tagged microtubule-stimulated ATPase activity of human Eg5 motor domain (1 to 368 residues) expressed in Escherichia coli BL21 (DE3) by pyruvate kinase-lactate dehydrogenase coupled assay
row,IC50,Compound
1,740 nM,CC(=O)NC1=NN(C(C)=O)C(C)(c2ccccc2)S1 (centres undefined)
2,493 nM,CC(=O)NC1=NN(C(C)=O)[C@](C)(c2ccccc2)S1

# Biological target: T1, Kinesin-like protein KIF11
# Assay: Binding affinity to N-terminal His6-tagged human Eg5 motor domain (1 to 368 residues) expressed in Escherichia coli BL21 (DE3) by isothermal titration calorimetry method
row,Kd,Compound
1,665 nM,CC(=O)NC1=NN(C(C)=O)C(C)(c2ccccc2)S1 (centres undefined)
2,220 nM,CC(=O)NC1=NN(C(C)=O)[C@](C)(c2ccccc2)S1

# Biological target: T1, Kinesin-like protein KIF11
# Assay: Inhibition of microtubule-stimulated human Eg5 ATPase activity
row,IC50,Compound
1,26 nM,CCNCCS(=O)(=O)NC[C@@]1(c2ccccc2)SC(NC(=O)C(C)(C)C)=NN1C(=O)C(C)(C)C [LITRONESIB]
